Among the data in PubChem BioAssay (NCI) are TGI and GI50 values, retold here.

“And” between values parts separate entries of the source, which are not always exact repeats. Equal values may be shown once.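 Assay format: 96-well plates, 48-hour exposure. GI50: concentration for 50% inhibition of growth. At the TGI there is no net growth.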

Assay in all cases: NCI tumour cell line growth inhibition, 48 h
For assay [1], the system named is MCF7 breast.
Assay [2] has as its system NCI-H23 lung.
Assay [3] relates to NCI-H460 lung.
Assay [4] has as its system HCT-116 colon.
The test system of assay [5] is IGROV1 ovarian.
In assay [6] the test system is SK-MEL-5 melanoma.
Assay [7] relates to OVCAR-4 ovarian.
Assay [8] deals with KM12 colon.
Assay [9] relates to NCI-H522 lung.
The subject of assay [10] is MALME-3M melanoma.
For assay [11], the system named is LOX IMVI melanoma.
Assay [12] has as its system M14 melanoma.
Assay [13] deals with SR leukemia.
Assay [14] relates to EKVX NSCLC.
The test system of assay [15] is UO-31 renal.
For assay [16], the system named is COLO 205 colon.
Assay [17] deals with SN12C renal.
Assay [18] concerns ACHN renal.

With `CC(=O)OC1OC(C2c3cccc(O)c3C(=O)c3c(O)cc(CO)cc32)C(O)C(O)C1O` (centres undefined), the TGI in assay [1] was 35.3 µM and > 100 µM; in assay [2] it was 11.3 µM and 13 µM; in assay [3] it was 13.4 µM and 12.4 µM; in assay [4], 11.2 µM and 10.8 µM; in assay [5] it was 20.8 µM and 21.1 µM; in assay [6], 4.26 µM and 4.09 µM. The TGI is more than 100 µM in assay [7]; 4.54 µM and 4.23 µM in assay [8]; 18.8 µM and 16.7 µM in assay [9]; 19.5 µM and 25.3 µM in [10]; 9.75 µM and 9.49 µM in assay [11]; 24.4 µM and 24.8 µM in [12]. For the same molecule, the TGI in assay [13] is > 100 µM and 33.1 µM; in [14] it was 36.8 µM and 26 µM; in assay [15] it was 22.5 µM and 21.3 µM; in assay [16] it was 7.63 µM; in assay [17], 24.3 µM and 17.9 µM. The GI50 in assay [8] was 0.811 µM and 0.17 µM; in assay [16] it was 2.7 µM.

For `COc1ccc(N2C(=O)C3c4[nH]c5ccc(OC)cc5c4C4CCC(c5ccccc5)CC4C3C2=O)cc1` (centres undefined), the TGI in assay [1] was more than 85.4 µM; in assay [2], 46.6 µM; in assay [3], 21.7 µM; in [4] it was 22.7 µM; in assay [5] it was 62.2 µM; in assay [6] it was more than 100 µM. In addition, the TGI was 19.3 µM in assay [7]; more than 56.3 µM in assay [8]; 27.4 µM in assay [9]; 34 µM in [18]; 30.3 µM in assay [10]; 56.3 µM in assay [11]. In addition, the TGI in assay [12] is more than 56.8 µM; in assay [13], 2.45 µM; in assay [14], 52 µM; in [15], more than 70.6 µM; in assay [16], more than 86.1 µM; in assay [17] it was 27.9 µM.

As for `NC(=S)NN=C1Cc2ccccc2C1`, the TGI in [1], in assay [2], in [3], in assay [4], in [5] and in assay [6] was more than 100 µM in each case. The TGI in assay [7], in assay [8], in [9], in assay [18], in assay [10] and in assay [11] was more than 100 µM in each case. Further, the TGI in assay [12], in assay [13], in assay [14], in [15], in assay [16] and in assay [17] was more than 100 µM in each case.

For the molecule `CCCCCCCCCCCCCC/C(C(=O)O)=C(\C)C(=O)O`, the TGI in assay [1], in assay [2], in assay [3], in [4], in [5] and in assay [6] was more than 100 µM in each case. Further, the TGI in assay [7], in assay [8], in assay [9], in assay [18], in [10] and in assay [11] was more than 100 µM each time. The TGI in assay [12], in assay [13], in assay [14], in [15], in assay [16] and in assay [17] was more than 100 µM each time.

Take `CC(C)C(=O)/C=C/c1ccc(Cl)cc1Cl`: the TGI in assay [1] was 14.2 µM; in [2], 26.8 µM; in assay [3], 23.4 µM; in assay [4], 10 µM; in [5], 28.4 µM; in assay [6] it was 27.9 µM. In addition, the TGI was determined as 20.9 µM in [7]; 13.7 µM in assay [8]; 22.8 µM in [9]; 29.7 µM in assay [18]; 28.2 µM in [10]; 13.5 µM in assay [11]. The TGI in assay [12] was 20 µM; in assay [13], more than 100 µM; in assay [14], 31 µM; in assay [15], 23.5 µM; in assay [16], 32.7 µM; in [17], 23 µM.

As to `CCOC(=O)n1ccc2c(C(=O)OC)c(C(=O)OC)cc(/C(=C/C(=O)OC)C(=O)OC)c21`, the TGI in [1], in assay [2], in assay [3], in assay [4], in assay [5] and in [6] was more than 100 µM in each case. Also, the TGI in [7], in assay [8], in [9], in assay [18], in assay [10] and in assay [11] was more than 100 µM in each case. Further, the TGI in assay [12], in [13], in [14], in assay [15], in [16] and in assay [17] was more than 100 µM each time.
